Test results taken from US20070197524A1, “Fluorenes and carbazoles as ligands of the EP2 receptor” (priority 2005, published 2007).

Tests used:
[1] = molecular target: T1, human prostaglandin E2 (subtype EP2) receptor (Homo sapiens, UniProt P43116); assay: cAMP antagonism assay (HTRF cAMP detection, in presence of PGE2); format: cell-based; settings: cAMP antagonism test
T1 construct: host or cells: cells in a cell culture plate
Description: 1. Detection of the Antagonism of the Human Prostaglandin E2 (Subtype EP2) Receptor Signal
1.1 Principle of Detection
(§1) The binding of PGE2 to the EP2 subtype of the human PGE2 receptor induces activation of membrane-associated adenylate cyclases and leads to the formation of cAMP. In the presence of the phosphodiesterase inhibitor IBMX, cAMP which has accumulated due to this stimulation and been released by cell lysis is employed in a competitive detection method. In this assay, the cAMP in the lysate competes with cAMP-XL665 for binding of an Eu cryptate-labelled anti-cAMP antibody.
(§2) The two signals are measured in a suitable measuring instrument with a time lag, i.e. after the background fluorescence has declined.
1.2.1 Antagonism Assay (Data for Each Well of a 384-Well Plate):
(§3) The substance solutions (0.75 μl) introduced into an assay plate and 30% DMSO are dissolved in 16 μl of a KRSB+IBMX stimulation solution (1×Krebs-Ringer Bicarbonate Buffer; Sigma-Aldrich # K-4002; including 750 μM 3-isobutyl-1-methylxanthine Sigma-Aldrich # I-7018), and then 15 μl thereof are transferred into a media-free cell culture plate which has been washed with KRSB shortly beforehand.
After preincubation at room temperature (RT) for 30 minutes, 5 μl of a 4×PGE2 solution (11 nM) are added, and incubation is carried out in the presence of the agonist at RT for a further 60 min (volume: ˜20 μl) before the reaction is then stopped by adding 5 μl of lysis buffer and incubated at RT for a further 20 min (volume: ˜25 μl). The cell lysate is then transferred into a measuring plate and measured in accordance with the manufacturer's information (cyclic AMP kit Cisbio International # 62AMPPEC).

[2] = molecular target: T1, human prostaglandin E2 (subtype EP2) receptor; assay: cAMP agonism assay (HTRF cAMP detection); format: cell-based; settings: cAMP agonism test; read-out: Agonism [ED50, μm]
Protocol: as §1, §2
1.2.2 Agonism Assay (Data for Each Well of a 384-Well Plate):
as §3
After incubation at room temperature (RT; volume: ˜15 μl) for 60 minutes, the reaction is then stopped by adding 5 μl of lysis buffer and incubated at RT for a further 20 min (volume: ˜20 μl). The cell lysate is then transferred into a measuring plate and measured in accordance with the manufacturer's information (cyclic AMP kit Cisbio International # 62AMPPEC).

cumulus-oocyte complexes = assay: Cumulus expansion assay in vitro; format: cell-based, mice; settings: concentration of 100-200 μm; test substances compete with PGE2
Protocol: 2.2 Cumulus Expansion Assay in Vitro
Folliculogenesis is induced in immature female mice (strain: CD1 (ICR) from Charles River) at an age of 14-18 days by a single dose (intraperitoneal) of 10 I.U. of PMSG (Pregnant Mare Serum Gonadotropin; Sigma G-4877, Lot 68H0909). 47-50 hours after the injection, the ovaries are removed and the cumulus-oocyte complexes are removed. The cumulus complex is not yet expanded at this stage.
The cumulus-oocyte complexes are then incubated with prostaglandin E2 (PGE2) (1 μM), vehicle control (ethanol) or test substances for 20-24 hours. Medium: alpha-MEM medium with 0.1 mM IBMX, pyruvates (0.23 mM) glutamines (2 mM), pen/strep 100 IU/ml pen. and 100 μg/ml strep. and HSA (8 mg/ml). Cumulus expansion is then established through the division into four stages (according to Vanderhyden et al. Dev Biol. 1990 August; 140 (2):307-317).

T1 sequence (P43116 whole entry): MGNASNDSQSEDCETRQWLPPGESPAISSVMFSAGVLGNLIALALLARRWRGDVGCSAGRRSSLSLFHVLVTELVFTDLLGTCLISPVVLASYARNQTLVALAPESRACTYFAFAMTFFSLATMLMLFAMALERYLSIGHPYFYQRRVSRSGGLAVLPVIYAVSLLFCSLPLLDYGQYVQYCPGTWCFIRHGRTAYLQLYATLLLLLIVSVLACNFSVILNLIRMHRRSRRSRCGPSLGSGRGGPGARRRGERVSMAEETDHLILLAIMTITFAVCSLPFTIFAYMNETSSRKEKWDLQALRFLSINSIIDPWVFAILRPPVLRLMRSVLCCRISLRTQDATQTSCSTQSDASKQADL

SMILES | IC50 [1] [µM] | EC50 [2] [µM] | suppression of cumulus expansion (cumulus-oocyte complexes)
O=C(O)CC1c2ccccc2-c2ccc(OCCCCOc3cccc(O)c3)cc21 (racemic) [VI/3, (R/S) {2-[4-(3-Hydroxyphenoxy)butoxy]-9H-fluoren-9-yl}acetic acid] | 6.4 | > 19 | ~50%
CC(=O)Nc1cccc(OCCCCOc2ccc3c(c2)C(CC(=O)O)c2ccccc2-3)c1 (racemic) [VI/4, (R/S) {2-[4-(3-Acetylaminophenoxy)butoxy]-9H-fluoren-9-yl}acetic acid] | > 19 | 6.3 | 
CC(C)Oc1ccc2c(=O)c3cc(C(=O)O)ccc3oc2c1 [AH6809, reference compound] | > 19 | > 19 | about 20%
CCOC(=O)Cn1c2ccccc2c2ccc(OCCCCOc3cccc(C(=O)OC)c3)cc21 [XII/5, Methyl 3-[4-(9-ethoxycarbonylmethyl-9H-carbazol-2-yloxy)butoxy]benzoate] | > 19 | 6.3 | 
CC(=O)c1cccc(OCCCCOc2ccc3c4ccccc4n(CC(=O)O)c3c2)c1 [XIII/12, {2-[4-(3-acetylphenoxy)butoxy]carbazol-9-yl}acetic acid] | 6.3 | > 19 | 
O=C(O)Cn1c2ccccc2c2ccc(OCCCCOc3ccc(-n4cccc4)cc3)cc21 [XIII/22, {2-[4-(4-pyrrol-1-ylphenoxy)butoxy]carbazol-9-yl}acetic acid] | 1.2 | > 19 | 
O=C(O)CCn1c2ccccc2c2ccc(OCCCCOc3ccc4c(c3)CCC(=O)N4)cc21 [XIII/67, 3-{2-[4-(2-oxo-1,2,3,4-tetrahydroquinolin-6-yloxy)butoxy]carbazol-9-yl}propionic acid] | 3.2 | > 19 | 
O=C(O)Cn1c2ccccc2c2ccc(OCCCOc3ccccc3)cc21 [XIII/85, [2-(3-phenoxypropoxy)carbazol-9-yl]acetic acid] | 6.7 | > 19 | 
O=C(O)Cn1c2ccccc2c2ccc(OCCCCCOc3ccccc3)cc21 [XIII/140, [2-(5-phenoxypentyloxy)carbazol-9-yl]acetic acid] | 6.7 | > 19 | 
